Assay results taken from US9988366B2, “Pesticidally active heterocyclic derivatives with sulphur containing substituents” (Syngenta Participations AG, priority 2014, dated 2018).

Tests used:
Type in all cases: in vivo
[1] = tested on: Spodoptera littoralis (Egyptian cotton leaf worm); experiment: Example B1: Spodoptera littoralis larvicide, feeding/residual contact activity, preventive (cotton leaf discs); conditions: foliar, 72 h, L1 larvae on sprayed cotton leaf discs, 3 days after treatment, read-out: effect in at least one of the three categories (mortality, anti-feedancy, or growth inhibition)
Description: Example B1: Activity Against Spodoptera littoralis (Egyptian Cotton Leaf Worm)
(§1) (Larvicide, Feeding/Residual Contact Activity, Preventive)
Cotton leaf discs were placed on agar in a 24-well microtiter plate and sprayed with test solutions. After drying, the leaf discs were infested with five L1 larvae. The samples were checked for mortality, repellent effect, feeding behaviour, and growth regulation 3 days after treatment (DAT). Control of Spodoptera littoralis by a test sample is when at least one of mortality, anti-feedant effect, and growth inhibition is higher than an untreated sample.

[2] = tested on: Diabrotica balteata (corn root worm); experiment: Example B4: Diabrotica balteata larvae L2 on maize sprouts, feeding/contact, preventative; conditions: 120 h, 5 days, read-out: activity (larval mortality and growth regulation)
Method: Example B4: Activity Against Diabrotica balteata (Corn Root Worm)
(Larvae L2 on Maize Sprouts, Feeding/Contact, Preventative)
Maize sprouts, placed on an agar layer in 24 well micro titer plates were treated with test solutions by spraying. After drying, the MTPs were infested with L2 larvae (6-10 per well). After an incubation period of 5 days, samples were checked for larval mortality and growth regulation.

[3] = tested on: Myzus persicae (green peach aphid); experiment: Example B5: Myzus persicae feeding/residual contact activity, preventive, mixed population (sunflower leaf discs); conditions: foliar, 144 h, mixed population on sunflower leaf discs, 6 DAT
Method: Example B5: Activity Against Myzus persicae (Green Peach Aphid)
(Feeding/Residual Contact Activity, Preventive), Mixed Population
Sunflower leaf discs were placed on agar in a 24-well microtiter plate and sprayed with test solutions. After drying, the leaf discs were infested with an aphid population of mixed ages. After an incubation period of 6 DAT, samples were checked for mortality and special effects (e.g. phytotoxicity).

[4] = tested on: Myzus persicae (green peach aphid); experiment: Example B6: Myzus persicae feeding activity sachet test, mixed population; conditions: 120 h, sucrose solution, 5 days after infestation
Description: Example B6: Activity Against Myzus persicae (Green Peach Aphid)
(Feeding Activity Sachet Test), Mixed Population
Test compounds were applied by pipette into 24 well plates and mixed with Sucrose solution. The plates were closed with a stretched Parafilm. A plastic stencil with 24 holes is placed onto the plate and infested pea seedlings were placed directly on the Parafilm. The infested plate is closed with a gel blotting paper and another plastic stencil and then turned upside down. 5 days after infestation the samples were checked on mortality. Application rate: 12.5 ppm.

[5] = tested on: Euschistus heros (neotropical brown stink bug); experiment: Example B8: Euschistus heros, soybean leaf spray test; conditions: 120 h, N-2 nymphs on soybean leaf, 5 days after infestation
Method: Example B8: Activity Against Euschistus heros (Neotropical Brown Stink Bug)
Soybean leaf on agar in 24-well microtiter plates were sprayed with aqueous test solutions prepared from 10,000 ppm DMSO stock solutions. After drying the leaf were infested with N-2 nymphs. The samples were assessed for mortality 5 days after infestation.

[6] = tested on: Plutella xylostella (diamond back moth); experiment: Example B3: Plutella xylostella larvicide, feeding/residual contact activity, preventive (artificial diet); conditions: 120 h, L2 larvae on artificial diet, 5 days, read-out: activity (larval mortality, antifeedant and growth regulation)
Method: Example B3: Activity Against Plutella xylostella (Diamond Back Moth)
as §1
24-well microtiter plate (MTP) with artificial diet was treated with test solutions by pipetting. After drying, the MTPs were infested with L2 larvae (10-15 per well). After an incubation period of 5 days, samples were checked for larval mortality, antifeedant and growth regulation.

Row | Compound | percent control (mortality, anti-feedancy or growth inhibition) at 400 ppm [1] [%] | mortality at 400 ppm [2] [%] | mortality at 400 ppm [3] [%] | mortality at 12.5 ppm [4] [%] | mortality at 400 ppm [5] [%] | mortality at 400 ppm [6] [%]
1 | CCS(=O)(=O)c1cc(C(F)(F)F)cnc1-c1ncc(-c2cccc(C(F)(F)F)c2)n1C [Compound P1, 3-ethylsulfonyl-2-[1-methyl-5-[3-(trifluoromethyl)phenyl]imidazol-2-yl]-5-(trifluoromethyl)pyridine] | ≥ 80 | > 80 | > 80 | ≥ 80 | – | –
2 | CCS(=O)(=O)c1cc(C(F)(F)F)cnc1-c1ncc(-c2cncc(C(F)(F)F)c2)n1C [Compound P5] | ≥ 80 | – | > 80 | – | – | –
3 | CCS(=O)(=O)c1cc(C(F)(F)F)cnc1-c1nc(Cl)c(-c2ccc(C(F)(F)F)cc2)n1C [Compound P7] | ≥ 80 | > 80 | – | – | – | –
4 | CCS(=O)(=O)c1cc(C(F)(F)F)cnc1-c1ncc(-c2cccc(C(F)(F)F)n2)n1C [Compound P8] | ≥ 80 | – | > 80 | – | > 80 | –
5 | CCn1c(-c2ccc(C(F)(F)F)nc2)cnc1-c1ncc(C(F)(F)F)cc1S(=O)(=O)CC [Compound P11] | ≥ 80 | > 80 | > 80 | – | – | > 80
6 | CCS(=O)(=O)c1cc(C(F)(F)F)cnc1-c1ncc(-c2cccc(SC(F)(F)F)c2)n1C [Compound P13] | ≥ 80 | – | – | – | – | –
7 | CCS(=O)(=O)c1cc(C(F)(F)F)cnc1-c1ncc(-c2cccc(S(=O)(=O)C(F)(F)F)c2)n1C [Compound P14] | ≥ 80 | – | > 80 | – | – | –
8 | CCS(=O)(=O)c1cc(C(F)(F)F)cnc1-c1nc(C)c(-c2ccc(C(F)(F)F)cc2)n1C [Compound P16] | – | > 80 | – | – | – | –
9 | CCS(=O)(=O)c1cc(C(F)(F)F)cnc1-c1cnc(-c2cc(Cl)cc(Cl)c2)n1C [Compound P17] | ≥ 80 | > 80 | – | – | – | > 80
10 | CCS(=O)(=O)c1cc(C(F)(F)F)cnc1-c1ncc(-c2ccc(Cl)cc2)n1C [Compound P18] | ≥ 80 | > 80 | – | – | – | > 80
11 | CCS(=O)(=O)c1cc(C(F)(F)F)cnc1-c1ncc(-c2cc(C(F)(F)F)ccc2F)n1C [Compound P20] | – | > 80 | – | – | – | –
12 | CCS(=O)(=O)c1cc(C(F)(F)F)cnc1-c1ncc(-c2cccc(OC(F)(F)F)c2)n1C [Compound P22] | ≥ 80 | > 80 | – | – | – | –
13 | CCS(=O)(=O)c1cc(C(F)(F)F)cnc1-c1ncc(-c2ccc(Cl)nc2)n1C [Compound P23] | ≥ 80 | > 80 | – | ≥ 80 | – | > 80
14 | CCS(=O)(=O)c1cc(C(F)(F)F)cnc1-c1ncc(-c2ccc(C(F)(C(F)(F)F)C(F)(F)F)cc2)n1C [Compound P24] | ≥ 80 | > 80 | – | – | – | > 80
15 | CCS(=O)(=O)c1cc(C(F)(F)F)cnc1-c1ncc(-c2ccc(Cl)c(F)c2)n1C [Compound P25] | ≥ 80 | > 80 | – | ≥ 80 | > 80 | > 80
16 | CCS(=O)(=O)c1cc(C(F)(F)F)cnc1-c1ncc(-c2cccc(C#N)n2)n1C [Compound P26] | – | > 80 | – | – | – | –
17 | CCS(=O)(=O)c1cc(C(F)(F)F)cnc1-c1ncc(-c2ccnc(Cl)c2)n1C [Compound P28] | ≥ 80 | > 80 | – | – | – | > 80
18 | CCS(=O)(=O)c1cc(C(F)(F)F)cnc1-c1ncc(-c2cccc(C(F)(F)Cl)c2)n1C [Compound P29] | ≥ 80 | > 80 | – | – | > 80 | > 80

Row | Compound | percent control (mortality, anti-feedancy or growth inhibition) at 400 ppm [1] [%] | mortality at 400 ppm [2] [%] | mortality at 400 ppm [3] [%] | mortality at 12.5 ppm [4] [%] | mortality at 400 ppm [5] [%] | mortality at 400 ppm [6] [%]
19 | CCS(=O)(=O)c1cc(C(F)(F)F)cnc1-c1ncc(-c2ccc(C(F)(F)F)cc2Cl)n1C [Compound P30] | ≥ 80 | > 80 | – | – | – | –
20 | CCS(=O)(=O)c1cc(C(F)(F)F)cnc1-c1ncc(-c2cc(C#N)ccc2Cl)n1C [Compound P32] | – | > 80 | – | – | – | –
21 | CCS(=O)(=O)c1cc(C(F)(F)F)cnc1-c1ncc(-c2ccc(Cl)c(Cl)c2F)n1C [Compound P33] | ≥ 80 | > 80 | – | – | – | > 80
22 | CCS(=O)(=O)c1cc(C(F)(F)F)cnc1-c1ncc(-c2cccc(Cl)c2)n1C [Compound P34] | – | > 80 | – | – | – | –
23 | CCS(=O)(=O)c1cc(C(F)(F)F)cnc1-c1ncc(-c2ccc(Cl)c(Cl)c2)n1C [Compound P35] | ≥ 80 | > 80 | – | – | > 80 | > 80
24 | CCS(=O)(=O)c1cc(C(F)(F)F)cnc1-c1ncc(-c2cc(F)cc(F)c2)n1C [Compound P36] | – | > 80 | – | – | – | –
25 | CCS(=O)(=O)c1cc(C(F)(F)F)cnc1-c1ncc(-c2ccc(Cl)c(C(F)(F)F)c2)n1C [Compound P38] | ≥ 80 | > 80 | – | ≥ 80 | > 80 | > 80
26 | CCS(=O)(=O)c1cc(C(F)(F)F)cnc1-c1ncc(-c2ccc(OC(F)(F)F)cc2)n1C [Compound P40] | ≥ 80 | > 80 | – | ≥ 80 | > 80 | > 80
27 | CCS(=O)(=O)c1cc(C(F)(F)F)cnc1-c1ncc(-c2cccc(C#N)c2)n1C [Compound P41] | ≥ 80 | > 80 | – | ≥ 80 | – | –
28 | CCS(=O)(=O)c1cc(C(F)(F)F)cnc1-c1ncc(-c2ccc(F)c(F)c2)n1C [Compound P43] | ≥ 80 | > 80 | – | ≥ 80 | – | > 80
29 | CCS(=O)(=O)c1cc(C(F)(F)F)cnc1-c1ncc(-c2cc(F)c(F)c(F)c2)n1C [Compound P44] | ≥ 80 | > 80 | – | – | – | > 80
30 | CCS(=O)(=O)c1cc(C(F)(F)F)cnc1-c1ncc(-c2ccc(C#N)cc2)n1C [Compound P45] | ≥ 80 | > 80 | – | ≥ 80 | – | > 80
31 | CCS(=O)(=O)c1cc(C(F)(F)F)cnc1-c1ncc(-c2ccc(C#N)nc2)n1C [Compound P47] | ≥ 80 | > 80 | – | – | – | –
32 | CCS(=O)(=O)c1cc(C(F)(F)F)cnc1-c1ncc(-c2ccc3c(c2)OC(F)(F)O3)n1C [Compound P48] | ≥ 80 | > 80 | – | – | – | > 80
33 | CCS(=O)(=O)c1cc(C(F)(F)F)cnc1-c1ncc(-c2ccc(C(F)(F)F)c(C(F)(F)F)c2)n1C [Compound P49] | ≥ 80 | > 80 | – | – | – | > 80
34 | CCS(=O)(=O)c1cc(C(F)(F)F)cnc1-c1ncc(-c2cc(C(F)(F)F)cc(Cl)n2)n1C [Compound P51] | ≥ 80 | > 80 | – | – | – | > 80
35 | CCS(=O)(=O)c1cc(C(F)(F)F)cnc1-c1ncc(-c2cc(C(F)(F)F)cc(C(F)(F)F)c2)n1C [Compound P52] | ≥ 80 | > 80 | – | – | – | > 80
36 | CCS(=O)(=O)c1cc(C(F)(F)F)cnc1-c1ncc(-c2ccc(F)c(Cl)c2)n1C [Compound P53] | ≥ 80 | > 80 | – | – | – | > 80
